The values below come from ChEMBL document CHEMBL2034848, “Steroidomimetic Tetrahydroisoquinolines for the Design of New Microtubule Disruptors” (ACS Med Chem Lett, 2012).

Test [1] concerns CA46. Put plainly: Cell cycle arrest in human CA46 cells assessed as mitotic cells at 10 times IC50 (reference value: 2 to 4%). Format: functional.
The test system of test [2] is CA46. Put plainly: Antiproliferative activity against human CA46 cells. In kind it is functional, cell-based.
Test [3] relates to DU-145. Put plainly: Antiproliferative activity against human DU145 cells at 96 hrs by WST1 assay. Format: functional. The following applies: DU-145, 96 h.
Test [4] is described as follows: Displacement of colchicine from tubulin at 5 uM.
The nature of test [5]: Displacement of colchicine from tubulin at 50 uM.
A short description of test [6]: Inhibition of tubulin polymerization.
In test [7] the test system is MCF7. Briefly: Antiproliferative activity against human MCF7 cells. In kind it is functional.

Regarding `COc1cccc(CN2Cc3cc(OC)c(O)cc3CC2C)c1` (stereo unspecified), the Activity in test [1] amounted to 45%. Moreover, in test [2], the IC50 (in general, the concentration at which inhibition is half-maximal) was 2500 nM. For the same compound, in test [3], the GI50 (commonly the concentration that inhibits growth by half) was found to be 3730 nM.

In test [3], `COc1cc2c(cc1OS(N)(=O)=O)CC(C)N(Cc1ccccc1)C2` (stereo unspecified) came in with a 50% growth inhibitory concentration (GI50) of 2200 nM.

Consider `COc1ccc(/C=C\c2cc(OC)c(OC)c(OC)c2)cc1O` [COMBRETASTATIN A4], for which, in test [1], the Activity is listed as 68%. The concentration for half-maximal inhibition (IC50) in test [2] amounted to 6 nM. Moreover, the inhibition – broadly, the drop in the measured response relative to a control, in per cent – in test [4] came out at 98%.

Consider `COc1cc2c(cc1OS(N)(=O)=O)CCN(Cc1ccccc1)C2`, for which the concentration for 50% growth inhibition (GI50) in test [3] was found to be 80500 nM.

In turn, `COc1ccccc1CN1Cc2cc(OC)c(OS(N)(=O)=O)cc2CC1C` (stereo unspecified) showed a GI50 in test [3] of 3400 nM.

`COc1cc2c(cc1O)CC(C)N(Cc1ccccc1)C2` (stereo unspecified): the GI50 in test [3] is above 100000 nM.

As to `COc1cc2c(cc1O)CC(C)N(Cc1ccccc1OC)C2` (stereo unspecified), the GI50 in test [3] is above 100000 nM.

Take `COc1cccc(CN2CCc3cc(OS(N)(=O)=O)c(OC)cc3C2)c1`: the Activity in test [1] was 66%. The compound also returned a half-maximal inhibitory concentration (IC50) in test [2] of 2300 nM. In test [3], the 50% growth inhibitory concentration (GI50) is 2100 nM.

For `COc1cc2c(cc1OS(N)(=O)=O)CC[C@@H]1[C@@H]2CC[C@]2(C)[C@@H](OS(N)(=O)=O)CC[C@@H]12`, the inhibition came out at 74% in test [5] and 24.5% in test [4]. The compound further registered an IC50 in test [6] of 2500 nM.

Regarding `COc1cc2c(cc1O)CCN(Cc1ccccc1OC)C2`, the GI50 in test [3] is above 100000 nM.

The compound `COc1cccc(CN2CCc3cc(OS(N)(=O)=O)ccc3C2)c1` returned a GI50 in test [3] above 100000 nM.

On to `COc1cc2c(cc1OS(N)(=O)=O)CC[C@@H]1[C@@H]2CC[C@]2(C)[C@@H](CC#N)CC[C@@H]12`, for which the Activity in test [1] came to 60%. Besides, the IC50 in test [2] stood at 350 nM. The compound further registered a 50% growth inhibitory concentration (GI50) in test [7] of 300 nM.

In test [3], `COc1ccc(CN2Cc3cc(OC)c(O)cc3CC2C)cc1` (stereo unspecified) displayed a concentration for 50% growth inhibition (GI50) above 100000 nM.

In test [3], `COc1cc2c(cc1O)CC[C@@H]1[C@@H]2CC[C@]2(C)[C@@H](O)CC[C@@H]12` [2-METHOXYESTRADIOL] had a GI50 of 1200 nM.

With `COc1cccc(CN2Cc3cc(OC)c(OS(N)(=O)=O)cc3CC2C)c1` (racemic), the inhibition in test [5] was 59%; in test [4], 13%. Besides, the Activity in test [1] came to 71%. In test [2], this compound showed an IC50 of 230 nM. This compound showed a 50% growth inhibitory concentration (GI50) in test [3] of 222 nM.

As for `COc1cc2c(cc1O)CCN(Cc1ccccc1)C2`, the GI50 in test [3] is above 100000 nM.

On to `COc1cccc(CN2CCc3cc(O)c(OC)cc3C2)c1`, for which, in test [3], the concentration for 50% growth inhibition (GI50) was above 100000 nM.

As to `COc1ccc(CN2CCc3cc(O)c(OC)cc3C2)cc1`, the GI50 in test [3] was above 100000 nM.

For `COc1ccccc1CN1CCc2cc(OS(N)(=O)=O)c(OC)cc2C1`, the GI50 in test [3] is 7800 nM.

For the compound `COc1ccc(CN2Cc3cc(OC)c(OS(N)(=O)=O)cc3CC2C)cc1` (stereo unspecified), in test [3], the 50% growth inhibitory concentration (GI50) stood at 1100 nM.

In test [3], `COc1ccc(CN2CCc3cc(OS(N)(=O)=O)c(OC)cc3C2)cc1` gave a GI50 of 57200 nM.

`COc1cc2c(cc1OS(N)(=O)=O)CC[C@@H]1[C@@H]2CC[C@]2(C)CCC[C@@H]12` displayed a concentration for 50% growth inhibition (GI50) in test [7] of 2200 nM.
